Entries after “also recorded” stand apart in the source; their conditions may differ. No end group written: not given here.
What was measured:
[1] = tested on: virgin females of Heliothis virescens; assay: Pheromonotropic assay (topical application); assay type: in vivo
Protocol: The amphiphilic carboranyl analog Cbe--Thr--Pro--Arg--Leu--NH2 was dissolved in water and solutions at concentrations of 5, 10, 25, 60, and 200 pmol/μl were prepared. The cuticular scales along the lateral side of the abdomen were removed with a 1 ml plastic pipet tip attached to house vacuum with a rubber hose. A low vacuum was applied to the apparatus and the pipet tip was gently passed over the cuticle until the scales were drawn by suction. After the scales were removed, 1 μl of peptide solution was applied to the surface of the cuticle and smoothed evenly over the prepared surface. […]
Pupae of Heliothis virescens were obtained from a laboratory colony maintained at the Insect Attractants Behavior and Basic Biology Research Laboratory, USDA-ARS, Gainesville, Fla. The pupae were separated by sex and the females were held in 4-1 cages. Cages were inspected daily for newly eclosed adults which were transferred to new cages and provided with cotton wicks soaked with a 5% sucrose solution. The insects were held at 25°[…] C. and 65%±3% relative humidity with a 12:12 (L:D) photoperiod. Virgin females were used for bioassays 2 and 3 days after eclosion during the 7th-8th hour of the photophase when little or no pheromone is present in the gland (Teal et al., 1993, Can. Entomol., 153:355-366). The cuticular scales were removed from the lateral side of the abdomen using a plastic pipet tip attached to house vacuum using a rubber hose. A low vacuum was applied and the pipet tip was passed gently over the cuticle until the scales were drawn off by suction. Insects were returned to the incubator for 24 h after the scales were removed for most experiments. However, insects were not given a recovery period in studies in which peptides were applied in DMSO (see below).
In initial studies we used dimethyl sulfoxide (DMSO) as a carrier to deliver Hez--PBAN or [6--Pha--Ala^0 ]Lom--MT--II for topical applications. […] We also assessed different carrier solvents for their ability to deliver these two peptides. Peptides were dissolved at a concentration of 500 pmol/μl in: DMSO, water, or 80% acetonitrile:20% water. Solutions were applied to the descaled abdomen in 1 μl of solvent as above. The insects were allowed to incubate for 1 h prior to excision and extraction of the pheromone gland. Extracts were analyzed for the amount of pheromone as above.
The use of water as a carrier for [6--Pha--Ala^0 ]Lom--MT--II was also assessed in dose response and temporal activity studies. For dose response studies [6--Pha--Ala^0 ]Lom--MT--II was dissolved in water at concentrations of 5, 10, 25, 50, 75, 100, 250, 500, 750 and 1000 pmol/μl. Insects were incubated for 60 min after application of 1 μl of solution to the descaled abdomen. In temporal activity studies a 100 pmol/μl dose was selected. For these experiments insects were incubated for periods of 15, 30, 60, 120, or 180 min after application of 1 μl of solution to the descaled abdomen. The ability of the parent peptide, Lom--MT--II, to stimulate pheromone production when applied topically in water was assessed by applying doses of 50, 100, 250 and 500 pmol to the abdomen. Control treatments for this experiment included insects treated with only water and females treated by topical application of 100 pmol of [6--Pha--Ala^0 ]Lom--MT--II. After incubation the sex pheromone glands were excised, extracted and analyzed for the amount of pheromone.

[2] = tested on: isolated cockroach (Leucophaea maderae) hindgut; details: values printed with reference numbers; cited from earlier work
[3] = tested on: virgin females of Heliothis virescens; details: H. virescens, printed with reference number; cited from earlier work
[4] = tested on: virgin females of Heliothis virescens; details: 100 pmole dose, cited from earlier work
[5] = oral administration; cited from earlier work
[6] = aqueous solution, 15 min to 3 hr

LSDDMPATPADQEMYRQDPEQIDSRTKYFSPRL-NH2 [HezPBAN, reference compound]
pheromone versus water-only controls, time course, topical in water ([1]; 100 pmol in water, 15-180 min, FIG. 9): no different from controls at any time interval; also recorded: did not contain more pheromone than was present in extracts obtained from insects treated with water only | pheromone production, topical 500 pmol/female in 80% acetonitrile ([1]; 80% acetonitrile in water, 60 min, FIG. 7): no significant activity | amount required to stimulate significant pheromone production relative to [6--Pha--Ala^0 ]Lom--MT--II ([1]; DMSO carrier): ten fold more | dose from which pheromone is produced, topical in DMSO ([1]; DMSO carrier, 60 min, FIG. 6): 50 pmol/female | amount of pheromone at 100 to 1000 pmol/female, topical in DMSO ([1]; DMSO carrier, FIG. 6): equivalent amounts of pheromone | pheromone production after topical application in DMSO ([1]; DMSO carrier, descaled cuticle): produced pheromone; also recorded: effective in stimulating pheromone production | pheromone production, topical 500 pmol/female in DMSO ([1]; DMSO, 60 min, FIG. 7): equivalent amounts of pheromone | pheromone production when applied to the surface of the cuticle in water ([1]; water carrier): failed to stimulate production of significant amounts of pheromone | pheromone production, topical 500 pmol/female in water ([1]; water, 60 min, FIG. 7): no significant activity | Threshold Concentration, myostimulation of the isolated cockroach hindgut [2]: 2,600 pM | ED50, pheromone production via injection [3]: 1.0 pmol | Maximal Response via injection (dose) [3]: 5.0 pmol | pheromone production over control group after topical aqueous application ([4]; 15 min, 1 hr, 2 hr, 3 hr following treatment, listed as PBAN): does not lead to production of statistically different levels of pheromone production | ED50, pheromone production via topical application [4, 6]: Inactive | Maximal Response via topical application [4, 6]: Inactive | share of orally administered peptide entering the hemolymph through the gut wall [5]: approximately 5%

Source: US5795857A, “Mimetic insect pyrokinin analogs for insect control” (The United States of America as represented by the …, priority 1996, dated 1998)
